# In patent US20170166870A1, “HUMAN HEPATIC 3D CO-CULTURE MODEL AND USES THEREOF” (Vrije Universiteit Brussel, priority 2014, published 2017):
# Like-named read-outs stand apart in the source and are kept apart here.
# Experiments:
# 3D HepaRG/HSC co-culture [1] = experiment: Single and repeated exposure, procollagen in culture supernatant; assay type: cell-based, human; settings: repeated exposure, day 14; not observed at day 21
# Source text: (§1) FIG. 10: APAP and reference fibrotic compounds in single- and repeated-exposure of the 3D HepaRG/HSC co-culture. (A, C and E) cell viability, represented by % ATP and (B, D and F) gene expression. Error bars represent the standard deviation between independent assays (N=2) each point represents the pool of 5-6 spheroids. (D, F) Graph inserts represent the second repeat of the assay. Due to the variation between assays values could not be averaged together. Each point represents the pool of 5-6 spheroids. (G-H) Fibrosis read-outs at the protein level. (G) Procollagen measurements in culture supernatant upon single and repeated compound exposure (day 14 and 21) to 3D HepaRG/HSCs. (H) Procollagen measurements in culture supernatant upon 24 h incubation with the reference pro-fibrotic compounds of 3D HepaRG and 3D HSCmono-cultures.
# (§2) Samples for pro-collagen measurement were five times concentrated using 10 kD Vivaspin 500 ultrafiltration columns (VWR, Radnor, Pa.), the resulting supernatant was analysed for the presence of Type I C-Peptide using the TAKARA (Chanteloup-en-Brie, France) kit.
# (§3) Single and repeated exposure. For the single and repeated compound exposure cell spheroids (3D HepaRG/HSC, 3D HepaRG and 3D HSC) were exposed respectively on day 20 for 24 h or every second day from day 8 to day 21 in serum-free medium with no additional solvent. […]
# 3D HepaRG/HSC co-culture [2] = experiment: Single and repeated exposure, gene expression of HSC activation markers; assay type: cell-based, human; settings: for HSC activation (up-regulation of activation markers, mRNA): serum-free medium
# Protocol: (§4) Single and repeated exposure. For the single and repeated compound exposure cell spheroids (3D HepaRG/HSC, 3D HepaRG and 3D HSC) were exposed respectively on day 20 for 24 h or every second day from day 8 to day 21 in serum-free medium with no additional solvent. Cells were exposed to a range of 8 concentrations between 0.5 and 80 mM for APAP single-dose, 0.125 and 40 mM for APAP repeated-dose, 0.3 and 500 μM Allyl Alcohol (AA, Sigma-Aldrich), 1.9 and 1000 μM Methotrexate (MTX, Pfizer, NY, USA). For the recovery assay, on day 21, cells were washed using serum-free medium and kept for 3 extra days.
# For the cell culture samples, total RNA from 4-6 pooled spheroids was extracted from cells using the RNeasy Micro Kit (Qiagen, Venlo, Limburg, Netherlands). In the mouse assays, sorted HSC from different mice were lysed separately. Total RNA from tissue cultured cells was extracted using ReliaPrep RNA Cell Miniprep System (Promega).
# Reverse-transcription using the Revert Aid Kit (ThermoFisher Scientific, Waltham, Massachusetts, USA) allowed conversion of RNA to cDNA. The RT reaction was performed at 25° C. for ten minutes followed by 30 minutes at 50° C. For quantitative real-time polymerase chain reaction (qPCR), GoTaq QPCR Master Mix with BRYTE green (Promega) was used, subjected to qPCR in a 7500 real time PCR system and analysed using System SDS software v2.0.5 (Applied Biosystems, Waltham, Mass., USA), using GAPDH for normalisation. Reliability of GAPDH as house-keeping gene was determined using Normfinder (Anderson et al., 2004). Fold change differences between samples were determined using the comparative Ct (δδCt) method. The expression level of different targets, relative to GAPDH (δCt) and relative to the calibrator, was given by 2^−δδCt.
# 3D HepaRG/HSC co-culture [3] = experiment: Single and repeated exposure, cell viability (% ATP), serum-free medium; assay type: cell-based, human
# Protocol: Culture medium. Day 0 cells were resuspended in HepaRG thawing medium and from day 1 to 21 cells were kept in the HepaRG culture medium 0% DMSO, until day 8. For the repeated versus single compound exposure assays, on day 8, the HepaRG culture medium 0% DMSO was replaced by the Serum-free HepaRG maintenance medium described in Klein et. al. 2013 (HepaRG Induction/Toxicity medium, DMSO 0.5% (v/v), 2 μg/ml of epidermal growth factor and 10 μg/ml of hepatocyte growth factor) and kept in this medium until the end of culture.
# as §4
# Cell viability assay was performed by measuring ATP production upon individual spheroid exposure to the different concentrations of the test compound. Cell spheroids were lysed individually for viability analysis using the Cell titer Glo kit (Promega) following the instructions of the manufacturer. Luminescence values were converted into percentage of ATP by comparison with controls and converted into dose-response curves using Prism 5 software.
# [4] = test system: 3D HepaRG and 3D HSC mono-cultures; experiment: Procollagen in culture supernatant of mono-cultures, reference pro-fibrotic compounds; assay type: cell-based, human; settings: 3D mono-cultures, 24 h incubation
# Source text: as §1, §2, §3
# 3D HepaRG/HSC co-culture [5] = experiment: mRNA expression of HSC activation markers (qPCR) after APAP incubation; assay type: cell-based, human; settings: 2.5 mM VPA, highest APAP concentrations
# Protocol: (§5) APAP toxicity assay was performed in 3D HepaRG/co-culture as well as in 3D HepaRG monoculture. For 24 h, starting at day 20, cells were exposed to a range of APAP concentrations between 0.5 and 80 mM, keeping cells with the solvent (0.1% DMSO) as a control. For some experiments the culture medium was supplemented with 2.5 mM valproic acid (VPA sodium salt, Sigma-Aldrich) or with cytokine mixture (Raicevic et al.,2012)-interleukin (IL)-1β 25 ng/mL (Peprotech, Rocky Hill, N.J., USA), interferon (IFN)-γ 10^3 U/mL, tumor necrosis factor (TNF)-a 50 ng/mL, and IFN-α 3·10^3 U/mL (all from Prospec, Inc., East Brunswick, N.J., USA). For the recovery assay, at the end of APAP incubation, cells were washed using HepaRG culture 0% DMSO medium and kept in the same medium for 3 more days.
# (§6) At the end of the incubation period, 5 spheroids per condition were pooled and lysed for RNA analyses, while the remaining spheroids per condition were lysed individually for viability analysis using the Cell titer Glo kit (Promega) for ATP measurements following the instructions of the manufacturer.
# (§7) Total RNA was extracted from cells using the ReliaPrep RNA Cell Miniprep System (Promega, Madison, Wis.). Reverse-transcription using the Revert Aid Kit (ThermoFisher Scientific, St. Leon-Rot, Germany) allowed conversion of RNA to cDNA. The RT reaction was performed at 25° C. for ten minutes followed by 30 minutes at 50° C. For quantitative real-time polymerase chain reaction (qPCR), GoTaq QPCR Master Mix with BRYTE green (Promega, Madison, Wis.) was used, subjected to qPCR in a 7500 real time PCR system and analysed using System SDS software v2.0.5 (Applied Biosystems), using GAPDH for normalisation.
# 3D HepaRG/HSC co-culture [6] = experiment: APAP toxicity assay, cell viability by ATP (Cell titer Glo); assay type: cell-based, human; settings: 2.5 mM VPA with APAP
# Protocol: as §5, with “For 24 h, starting at day 20, cells were exposed to a range of APAP concentrations between 0.5 and 80 mM, keeping cells with the solvent (0.1% DMSO) as a control.” left out
# as §6
# [7] = test system: 3D mouse hepatocyte/HSC co-culture (1Hep:2HSC); experiment: LPS stimulation of 3D mouse hepatic co-cultures, aSMA and Col1a1 expression; assay type: cell-based; settings: 6 days LPS treatment, day 9; 1Hep:2HSC ratio
# Source text: FIG. 1: Screen of hepatocyte:hepatic stellate cell ratios in 3D mouse cultures. Figure represents the HSC activation markers (A, B) and Hepatocyte markers (C) measured in the different 3D mouse hepatic co-cultures. A—basal gene expression of fibrotic markers (aSMA and Col1a1) on day 9 of culture. B—Fold increase of aSMA and Col1a1 on day 9 upon 6 days treatment with the pro-fibrotic factor LPS. Horizontal line corresponds to non-treated 3D co-cultures for each case. C—over-time gene expression of albumin (a) and CYP3A11 (b) in the 3D co-cultures where better results were obtained previously (2hep:1HSC and 1Hep:2HSC). Comparisons between groups were analyzed for statistical significance by one-way ANOVA followed by Tukey. *** p<0.001; ** p<0.01; * p<0.05. […]
# Total RNA was extracted from cells using the ReliaPrep RNA Cell Miniprep System (Promega, Madison, Wis.). […] For quantitative real-time polymerase chain reaction (qPCR), GoTaq QPCR Master Mix with BRYTE green (Promega, Madison, Wis.) was used, subjected to qPCR in a 7500 real time PCR system and analysed using System SDS software v2.0.5 (Applied Biosystems), using GAPDH for normalisation. Reliability of GAPDH as house-keeping gene was determined using Normfinder (Andersen, Jensen et al. 2004) to produce the ΔCT values. […]
# 3D HepaRG/HSC co-culture [8] = experiment: Exposure to pro-fibrotic factors, gene expression; assay type: cell-based, human
# Protocol: From day 14 to day 21, 3D HepaRG/HSC spheroids were exposed to a solution of 100 ng/ml Lipopolysaccharide (LPS, Sigma) in culture medium, refreshed every second day up to day 21. Incubation with the Transforming growth factor-β1 (TGF-β1, R&D systems inc., Minneapolis, Minn., USA) was performed on day 19 for 48 h at a concentration of 10 ng/ml in HepaRG Induction/Toxicity medium. On day 21, cells were lysed and gene expression was analyzed upon RNA extraction.
# as §7
compound,measurement,setting,value
C=CCO [Allyl Alcohol],collagen secretion,3D HepaRG/HSC co-culture [1],high collagen secretion at day 14
same,"HSC activation (up-regulation of activation markers, mRNA)",3D HepaRG/HSC co-culture [2]; repeated exposure,increase of the HSC activation markers at mRNA levels
same,"HSC activation (up-regulation of activation markers, mRNA)",3D HepaRG/HSC co-culture [2]; single exposure 24 h,increase of the HSC activation markers at mRNA levels
same,cell viability dose-response,3D HepaRG/HSC co-culture [3]; repeated exposure,disappeared upon repeated exposure
same,cell viability,3D HepaRG/HSC co-culture [3]; single exposure,dose-response observed at the single exposure
same,collagen secretion,[4],no collagen secretion is detected
"CN(Cc1cnc2nc(N)nc(N)c2n1)c1ccc(C(=O)N[C@@H](CCC(=O)O)C(=O)O)cc1 [MTX, Methotrexate]",collagen secretion,3D HepaRG/HSC co-culture [1],high collagen secretion at day 14
same,recovery of HSC 3 days after compound washout,3D HepaRG/HSC co-culture [2]; repeated exposure 63 μM,observed
same,"HSC activation (up-regulation of activation markers, mRNA)",3D HepaRG/HSC co-culture [2]; repeated exposure,dramatically compensated
same,"HSC activation (up-regulation of activation markers, mRNA)",3D HepaRG/HSC co-culture [2]; single exposure 24 h,no longer observed
same,cell viability,3D HepaRG/HSC co-culture [3],does not seem to affect cell viability at any of the tested concentrations
same,percentage of ATP production,"3D HepaRG/HSC co-culture [3]; repeated exposure, lowest concentration",less than 20%
same,collagen secretion,[4],no collagen secretion is detected
"CCCC(CCC)C(=O)O [VPA, valproic acid]",effect on APAP-induced HSC markers,3D HepaRG/HSC co-culture [5],lower up-regulation of the HSC markers
same,effect on APAP toxicity (cell viability),3D HepaRG/HSC co-culture [6],did not affect APAP toxicity
Lipopolysaccharide [LPS],"activation response (aSMA, Col1a1)",[7],increased aSMA and Col1a1
same,"survivor markers (IL6, MMP1, CCL2, TNFα, IL1β) expression","3D HepaRG/HSC co-culture [8]; 100 ng/ml LPS, 6 days",induced an up-regulation of the survivor markers
"TGFβ: Transforming growth factor-β1, known pro-fibrogenic factor","activation markers (Acta2, Col1a1, Col3a1, Loxl2) expression","3D HepaRG/HSC co-culture [8]; 10 ng/ml TGFβ, 48 h, day 21",acted on the activation markers
